This passage reports Photobleaching during illumination results from patent publication US20150360047A1, “Cosmetic Biophotonic Compositions” (KLOX TECHNOLOGIES INC., priority 2012, published 2015).

Structures are written as SMILES.

The series is described as follows: Absorption/emission spectra and photobleaching of chromophores and chromophore combinations. Type of series: physicochemical. The procedure:
The photodynamic properties of (i) Fluorescein sodium salt at about 0.09 mg/mL, (ii) Eosin Y at about 0.305 mg/mL, and (iii) a mixture of Fluorescein sodium salt at about 0.09 mg/mL and Eosin Y at about 0.305 mg/mL, all in a gel (12% carbamide) were evaluated. A flexstation 384 II spectrophotometer was used to measure emitted fluorescence with the following parameters: mode fluorescence, excitation 460 nm, emission spectra 465-750 nm. The absorbance was read using a synergy HT microplate reader: mode absorbance; spectra between 300-650 nm. The absorption and emission spectra are shown in FIGS. 8A and 8B which indicate an energy transfer between the chromophores in the combination. It is to be reasonably inferred that this energy transfer can also occur in biophotonic compositions of the present disclosure. […]
The photodynamic properties of (i) Fluorescein sodium salt at 0.18 mg/mL final concentration, (ii) Eosin Y at about 0.305 mg/mL, and (iii) a mixture of Fluorescein sodium salt at about 0.18 mg/mL and Eosin Y at about 0.305 mg/mL in an aqueous solution were evaluated. A flexstation 384 II spectrophotometer was used to measure emitted fluorescence with the following parameters: mode fluorescence, excitation 460 nm, emission spectra 465-750 nm. The absorbance was read using a synergy HT microplate reader: mode absorbance; spectra between 300-650 nm. […]

As to `O=C([O-])c1ccccc1-c1c2cc(Br)c(=O)c(Br)c-2oc2c(Br)c([O-])c(Br)cc12.[Na+].[Na+]` [Eosin Y], the Photobleaching during illumination entry is, setting by setting: (with Fluorescein in aqueous solution, Example 4) “Photobleaching of Eosin Y was observed”; (with Fluorescein in gel (12% carbamide), Example 3) “Photobleaching of Eosin Y was observed”.
